The target of this test is T1, Human neutrophil elastase (Homo sapiens, UniProt P08246).
T1 construct: Enzyme was isolated from human sputum; from tissue; host or cells: human sputum
T1 sequence (P08246 30-267): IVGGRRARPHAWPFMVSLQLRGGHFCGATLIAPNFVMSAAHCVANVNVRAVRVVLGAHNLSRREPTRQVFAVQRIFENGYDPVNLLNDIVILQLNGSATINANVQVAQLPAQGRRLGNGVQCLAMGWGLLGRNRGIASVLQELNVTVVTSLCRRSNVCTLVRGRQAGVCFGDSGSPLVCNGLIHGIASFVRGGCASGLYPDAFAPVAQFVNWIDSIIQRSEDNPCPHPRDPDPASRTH
Nature of the test: In vitro assay of human neutrophil elastase in the presence of prodrug and porcine liver esterase. It is filed as biochemical. The following applies: for time course / onset of inhibition of elastase compared with MDL 103,279: 66 nM compound + porcine liver esterase, FIG. 2. As for the experimental part: Human neutrophil elastase was assayed in vitro using N-MeOSuc-Ala-Ala-Pro-Val-p-nitroanilide, available commercially, as substrate. The assay techniques are similar to those described by Mehdi, et al., Biochemical and Biophysical Research Communications, 166, 595 (1990). The assay mixture consisted of partially purified elastase and substrate (0.2 mM) in 0.1M HEPES (pH 7.5), 0.5M NaCl, 10% DMSO and 0.1% Brij 35. The reaction (3.0 mL, in a plastic cuvette) was maintained at 37° C. and the hydrolysis of the substrate was followed in the presence of 66 nM of MDL 103,279 and 12.5 units of porcine liver esterase (Sigma Chemical Co., cat. no. E-3128). Enzyme was isolated from human sputum, although recently it has become commercially available. The time course of the reaction was followed for 60 min. […] From the final rate, a Ki of 25 nM was calculated for the final inhibitory species, presumed to be MDL 101,146 (as disclosed in European Pat. Appl. OPI No. 0529568, published Mar. 3, 1993). This is consistent with the Ki obtained independently for MDL 101,146. The Ki for MDL 103,279, the prodrug, was estimated from the initial rate to be greater than 2 μM. To rule out interference of the esterase with the elastase assay, or a significant spontaneous (i.e. non-enzymatic) hydrolysis rate of MDL 103,279, the following control experiments, as portrayed in FIG. 1, were performed: (A) elastase+elastase substrate; (B) elastase+elastase substrate+porcine liver esterase; (C) elastase+elastase substrate+MDL 103,279; as well as (D) elastase+elastase substrate+esterase+MDL 103,279.

With `CC(C)C(=O)OC(=C(NC(=O)[C@@H]1CCCN1C(=O)[C@@H](NC(=O)c1ccc(C(=O)N2CCOCC2)cc1)C(C)C)C(C)C)C(F)(F)C(F)(F)F` [MDL 105,658, (E)-N-[4-(4-Morpholinylcarbonyl)benzoyl]-L-valyl-N-[3,3,4,4,4-pentafluoro-1-(1-methylethyl)-2-(2-methyl-1-oxopropoxy)-1-butenyl]-L-prolinamide], the “time course / onset of inhibition of elastase compared with MDL 103,279” value is “same time course”.

As for `CC(=O)OC(=C(NC(=O)[C@@H]1CCCN1C(=O)[C@@H](NC(=O)c1ccc(C(=O)N2CCOCC2)cc1)C(C)C)C(C)C)C(F)(F)C(F)(F)F` [MDL 105,457, (Z)-N-[4-(4-Morpholinylcarbonyl)benzoyl]-L-valyl-N-[2-(acetyloxy)-3,3,4,4,4-pentafluoro-1-(1-methylethyl)-1-butenyl]-L-prolinamide], the “time course / onset of inhibition of elastase compared with MDL 103,279” value is listed as “significantly slower”.

Regarding `CCC(=O)OC(=C(NC(=O)[C@@H]1CCCN1C(=O)[C@@H](NC(=O)c1ccc(C(=O)N2CCOCC2)cc1)C(C)C)C(C)C)C(F)(F)C(F)(F)F` [MDL 104,226, (E)-N-[4-(4-Morpholinylcarbonyl)benzoyl]-L-valyl-N-[3,3,4,4,4-pentafluoro-1-(1-methylethyl)-2-(1-oxopropoxy)-1-butenyl]-L-prolinamide], the “time course / onset of inhibition of elastase compared with MDL 103,279” value is on record as “same time course”.

With `CC(=O)OC(=C(NC(=O)[C@@H]1CCCN1C(=O)[C@@H](NC(=O)c1ccc(C(=O)N2CCOCC2)cc1)C(C)C)C(C)C)C(F)(F)C(F)(F)F` [MDL 103,279, (E)-N-[4-(4-Morpholinylcarbonyl)benzoyl]-L-valyl-N-[2-(acetyloxy)-3,3,4,4,4-pentafluoro-1-(1-methylethyl)-1-butenyl]-L-prolinamide], the “half-time of the progressive increase in extent of inhibition of elastase” value (66 nM compound, 12.5 units porcine liver esterase, 37° C., followed for 60 min) is “approximately 10 min”. Besides, the inhibitory constant (Ki) (in general, the dissociation constant of the complex between target and ligand, obtained from inhibition or displacement) (66 nM compound, 12.5 units porcine liver esterase, pH 7.5, 37° C., read-out: Ki of the prodrug estimated from the initial rate) was more than 2000 nM.

These data come from patent publication US5698523A, “Acylated enol derivatives as prodrugs of elastase inhibitors” (Merrell Pharmaceuticals Inc., priority 1996, dated 1997).
